Laboratory results reported in patent US8993606B2, “Oral formulations for treating metal overload” (FerroKin BioSciences, Inc., priority 2011, dated 2015).
Read-outs that look alike come from different tables or passages of the source.

What was measured:
iron overloaded subjects = assay: Safety: single-dose Phase 1 study in iron-overloaded subjects; assay type: in vivo
Method: The objectives of this study were to assess the safety, tolerability, and pharmacokinetics of ascending single doses of Compound 1. Additionally, dose proportionality and pharmacodynamics of Compound 1 were assessed. Four doses of Compound 1 (6, 10, 16, and 32 mg/kg), in capsule form, were evaluated in this study. Each dose level was tested in a single subject, with appropriate evaluation of safety done prior to escalating the dose. Following screening, the first subject was dosed and then confined to the clinical research unit for 24 hours to conduct safety and pharmacokinetic assessments. The subject was released from the clinic on Day 2 and returned daily for follow-up visits for 5 days post-dosing. This process was followed for each dose level.
Four iron overloaded subjects were enrolled and completed the study. Each subject received a single oral dose of Compound 1. Doses were 6, 10, 16 and 32 mg/kg. […] Three TEAEs were reported for a single subject who received 32 mg/kg of Compound 1. All 3 TEAEs occurred at the site of venipuncture used for blood sampling: bruising at cannula site on the left arm and bruising at 2 venipuncture sites on the left arm and then the right arm.

[1] = Example 4: seven-day dosing in iron-overloaded human subjects (PK, tolerability); assay type: in vivo; details: for CL renal / half-life / Cmax / Tmax / AUC(0-t) / Vd/F: human; for CL renal: plasma and urine; for half-life / Cmax / Tmax / AUC(0-t) / Vd/F: plasma; for AUC(0-t): read-out: AUC(0-24); for Vd/F: read-out: Vz/F
Method: A dose-escalation study to assess the safety, tolerability, pharmacokinetics and pharmacodynamics of Compound 1, which correspond to a capsule formulation of (S)-3′-(OH)-DADFT-PE was conducted in 16 adult patients with iron overloaded consequent to transfusions. […] Compound 1 was supplied as capsules containing 50 mg, 100 mg, or 250 mg. The capsules were manufactured in accordance with Annex 13 and the principle of cGMP at Aptuit (10245 Hickman Mills Drive, Kansas City, Mo. 64137).
Patients 18 years or older with documented transfusional iron overload requiring chronic treatment with deferiprone, deferasirox or deferoxamine were eligible. Causes of iron overload included β-thalassemia major, α-thalassemia or α-thalassemia hydrops)(α°α°, sickle cell disease, and congenital dyserythropoietic anemia. Each of the four cohorts contained four patients. For the purposes of this study, transfusion dependence was defined as requiring eight or more transfusions per year. The iron burden inclusion criteria were defined as: (i) liver iron concentration greater than 2 mg/g (dry weight, liver) as determined by R2 magnetic resonance imaging; (ii) a cardiac magnetic resonance imaging T2* greater than 12 ms; and (iii) serum ferritin in excess of 600 ng/mL. Eligible patients who consented to participation in the study discontinued their regular chelation therapy for up to 5 days during a wash-out period prior to their first dose of Compound 1. Patients received Compound 1 in capsules taken orally in a fasted state.
In this study, a standard pharmacokinetic protocol of plasma sampling was performed throughout the 7 days of dosing and continuing for 3 days after the last dose on day 7. Actual blood sampling and urine collection times were used in all pharmacokinetic analyses. […] A formally validated bioanalytical method for quantifying total Compound 1 in human plasma and urine was developed. The drug was extracted from plasma using solid phase extraction and analyzed using high performance liquid chromatography with tandem mass spectrometric determination, and d3-[Compound 1] as an internal standard. The method was used to measure drug (MW 400) over the range of 5 to 2000 ng/mL (12.5-5000 nM) and at sample dilutions of 20- to 50-fold.
Pharmacokinetic parameters for Compound 1 were estimated using non-compartmental analysis. Only plasma and urine concentrations greater than the lower limits of quantitation (LOQ, 5 ng/mL in plasma, 5 ng/mL in urine) for the assays were used in the pharmacokinetic analysis.
Plasma concentrations, blood sampling times, urine concentrations, urine volumes, and the amount excreted in each interval, and pharmacokinetic parameters were listed by dose group and patient. Plasma concentrations and pharmacokinetic parameters were summarized by dose group using descriptive statistics: linearity with respect to Cmax and AUC(0-24) was assessed using the power model, i.e. P=a×Doseb, where P represents the parameter and a and b are constants. A log-log plot of P versus Dose is linear and a value of b of ≈1 indicates linearity. The equation was fitted to the individual patients' data using non-linear least squares regression. Parameters were compared among doses using descriptive statistics. Due to the small numbers of patients per panel, no formal statistical analyses were done.

## COCCOCCOCCOc1cccc(C2=N[C@@](C)(C(=O)O)CS2)c1O [Compound 1, (S)-4,5-Dihydro-2-[2-hydroxy-3-(3,6,9-trioxadecyloxy)phenyl]-4-methyl-4-thiazolecarboxylate magnesium hydroxide]
Iron overloaded subjects; single oral dose 6, 10, 16, 32 mg/kg
  tolerability: well tolerated
Iron overloaded subjects; single oral dose 6-32 mg/kg
  clinical laboratory assessments, vital sign measurements, ECG parameters: no clinically significant changes
  deaths, SAEs, withdrawals due to AEs: no deaths, no serious adverse events (SAEs), and no withdrawals due to AEs
Iron overloaded subjects; single subject who received 32 mg/kg, all at site of venipuncture
  TEAEs reported: Three
[1]; 3 mg/kg daily 7 days oral
  CL/F: 162 ± 85 mL/min
  CL renal: 75.2 ± 46.8 mL/min
  Cmax: 5910 ± 2300 ng/mL
  Tmax: 1.31 h
  AUC(0-t): 19500 ± 11300 ng·h/mL
  Vd/F: 185 ± 84.1 L
[1]; 8 mg/kg daily 7 days oral
  CL/F: 225 ± 142 mL/min
  CL renal: 105 ± 62.9 mL/min
  Cmax: 15000 ± 4440 ng/mL
  Tmax: 1.18 h
  AUC(0-t): 44900 ± 30800 ng·h/mL
  Vd/F: 311 ± 137 L
[1]; 16 mg/kg daily 7 days oral
  CL/F: 206 ± 78.4 mL/min
  CL renal: 83.2 ± 36.5 mL/min
  Cmax: 38200 ng/mL
  Tmax: 1 h
  AUC(0-t): 92300 ± 36600 ng·h/mL
  Vd/F: 339 ± 166 L
[1]; 32 mg/kg daily 7 days oral
  CL/F: 172 ± 60.1 mL/min
  CL renal: 73.6 ± 37.8 mL/min
  Cmax: 60200 ± 27500 ng/mL
  Tmax: 1.49 h
  AUC(0-t): 158000 ± 43500 ng·h/mL
  Vd/F: 214 ± 2.94 L
[1]; 3-32 mg/kg daily 7 days
  serious adverse events associated with the drug: no serious adverse events
[1]; all four doses 3-32 mg/kg
  dose proportionality of plasma concentrations: dose-proportional, linear pharmacokinetics
[1]; daily for 7 days at doses up to 32 mg/kg
  tolerability: well tolerated at all dose levels
[1]; oral, 40 mg/kg, 5th cohort of four patients, read-out: Mean half life (t½) (converted)
  half-life: 26.6 h
[1]; oral, across doses 3-32 mg/kg, read-out: t½ (converted)
  half-life: 19.2 h
[1]; 3 mg/kg daily 7 days oral, read-out: t½ (converted)
  half-life: 16.2 ± 8.32 h
[1]; 8 mg/kg daily 7 days oral, read-out: t½ (converted)
  half-life: 20.9 ± 11.3 h
[1]; 16 mg/kg daily 7 days oral, read-out: t½ (converted)
  half-life: 21.3 ± 11.8 h
[1]; 32 mg/kg daily 7 days oral, read-out: t½ (converted)
  half-life: 18.7 ± 4.48 h
